# Reference: US20020137929A1, “1 - (3-heterocyclylphenyl) isothiourea, -isourea, -guanidine and -amidine herbicidal agents” (Intellectual Property Department, BASF Aktiengesellschaft, priority 1998, published 2002)
# Assays:
# CASOB (Sicklepod) = assay: Postemergence herbicidal evaluation; type: in vivo, Cassia obtusifolia; settings: postemergence
# Method in brief: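 Two-week seedlings sprayed postemergence at 40 psi; formulation: 1:1 acetone/water, 0.5% TWEEN 20; application ≈0.0156–0.500 kg/ha. Greenhouse grow-out, then 0–9 visual scoring at 4–5 weeks.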
# [1] = test system: SAGPY (Arrowhead (Pygmaea)); assay: Preemergence weed control under flooded paddy conditions; type: in vivo, Sagittaria pygmaea; settings: rated 3-4 weeks after treatment
# Method in brief: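 Silt loam, seeds in top 0.5 cm; flood held 1.5-3 cm; test cpd as acetone/water 50/50 into flood water, ~0.0313-0.500 kg/ha a.i.; greenhouse 3-4 wk; visual 0-9 score vs control.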
# ORYSAT (Rice, Tebonnet) [2] = assay: Rice tolerance to post-transplant applications, flooded paddy conditions (Table III); type: in vivo, Oryza sativa, (L.) Tebonnet; settings: in vivo
# Method: Results of herbicide evaluation are expressed on a rating scale (0-9). The scale is based upon a visual observation of plant stand, vigor, malformation, size, chlorosis and overall plant appearance as compared with a control.
# The tolerance of transplanted rice to post-transplanted herbicide applications is determined as follows: two ten-day-old rice seedlings (cv. Tebonnet) are transplanted into silt loam soil in 32 oz. plastic containers with a diameter of 10.5 cm and no drainage holes. After transplanting, the containers are flooded and the water level is maintained at 1.5 to 3 cm above the soil surface. Three days after transplanting, the flooded soil surface of the containers is treated with the selected aqueous/acetone 50/50 v/v mixture containing the test compounds to provide the equivalent of about 0.0313 to 0.500 kg/ha of active ingredient. The treated containers are placed on greenhouse benches, watered such that the water level is maintained as stated above, and cared for in accordance with conventional greenhouse procedures. Three to four weeks after treatment, the test is terminated and each container is examined and herbicidal effect rated according to the rating system provided in Example 37. The compounds evaluated are reported by compound number given in Example 37.
# Plant species employed in this example are reported by header abbreviation, common name and scientific name.
# [3] = test system: TRZAWR (Wheat, Winter, cv Riband); assay: Preemergence herbicidal evaluation; type: in vivo, Triticum aestivum; settings: rated 4-5 weeks after treatment; for TRZAWR rating: preemergence, 0-9 scale
# Method in brief: (§1)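 Seeds were mixed with potting soil and planted on about one inch of soil, then sprayed with test compound in aqueous acetone at about 0.0156 to 0.500 kg per hectare. Plants grew under standard greenhouse care and were visually rated 0-9 against untreated controls 4-5 weeks post-treatment.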
# ORYSAT (Rice, Tebonnet) [4] = assay: Preemergence herbicidal evaluation; type: in vivo, Oryza sativa, (L.) Tebonnet; settings: rated 4-5 weeks after treatment; for ORYSAT rating: preemergence, 0-9 scale
# Method in brief: as §1
# [5] = test system: GLXMAW (Soybean, Williams); assay: Preemergence herbicidal evaluation; type: in vivo, Glycine max, (L.) Merr. cv Williams; settings: rated 4-5 weeks after treatment; for GLXMAW rating: preemergence, 0-9 scale
# Method in brief: as §1
# MOOVA (Monochoria) = assay: Postemergence weed control under flooded paddy conditions; type: in vivo, Monochoria vaginalis; settings: postemergence weeds
# Method in brief: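 Containers holding 3–5 cm weeds and rice at 1.5–2.5 leaves are flooded to 1.5–3 cm above soil. Compound in 50/50 v/v aqueous/acetone is then added directly to the water, about 0.0313–0.500 kg/ha. Plants are kept in the greenhouse and rated 0–9 visually at 3–4 weeks.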
# [6] = rate 0.1250 kg/ha, rating scale 0-9
# [7] = rate 0.2500 kg/ha, rating scale 0-9
# [8] = Rate 0.0313 kg/ha, rated 3 to 4 weeks after treatment
# [9] = Rate 0.0625 kg/ha, rated 3 to 4 weeks after treatment
# [10] = Rate 0.1250 kg/ha, rated 3 to 4 weeks after treatment
# [11] = Rate 0.2500 kg/ha, rated 3 to 4 weeks after treatment
structure (smiles),measurement,setting,value
"Cc1ccc(CN2C(=O)CSC2=Nc2cc(-n3c(=O)cc(C(F)(F)F)n(C)c3=O)c(F)cc2Cl)cc1Cl [Compound 149, 3-{4-Chloro-5-{[3-(3-chloro-4-methylbenzyl)-4-oxo-2-thiazolidinylidene]amino}-2-fluorophenyl}-1-methyl-6-(trifluoromethyl)-2,4(1H,3H)-pyrimidinedione]",Herbicidal rating CASOB,CASOB (Sicklepod); rate 0.0156 kg/ha,0.0
same,Herbicidal rating CASOB,CASOB (Sicklepod); rate 0.0313 kg/ha,0.0
same,Herbicidal rating CASOB,CASOB (Sicklepod); rate 0.0625 kg/ha,0.0
same,"herbicidal effect rating, SAGPY",[1]; 0.0313 kg/ha,0.0
same,"herbicidal effect rating, SAGPY",[1]; 0.0625 kg/ha,2.0
same,"herbicidal effect rating, SAGPY",[1]; 0.1250 kg/ha,3.0
same,"herbicidal effect rating, SAGPY",[1]; 0.2500 kg/ha,3.0
same,"herbicidal effect rating, ORYSAT (rice tolerance)","ORYSAT (Rice, Tebonnet) [2]",0.0
same,Preemergence herbicidal rating TRZAWR,[3]; [6],0.0
same,Preemergence herbicidal rating TRZAWR,[3]; [7],2.0
same,Preemergence herbicidal rating ORYSAT,"ORYSAT (Rice, Tebonnet) [4]; [6]",2.0
same,Preemergence herbicidal rating ORYSAT,"ORYSAT (Rice, Tebonnet) [4]; [7]",2.0
same,Preemergence herbicidal rating GLXMAW,[5]; [6],3.0
same,Preemergence herbicidal rating GLXMAW,[5]; [7],7.0
"C=CCN1C(=O)C(CC(=O)NC)SC1=Nc1cc(-n2c(=O)cc(C(F)(F)F)n(C)c2=O)c(F)cc1Cl (centres unmarked) [Compound 84, 3-Allyl-2-{{2-chloro-5-[3,6-dihydro-3-methyl-2,6-dioxo-4-(trifluoromethyl)-1(2H)-pyrimidinyl]-4-fluorophenyl}imino}-N-methyl-4-oxo-5-thiazolidineacetamide]",Herbicidal rating MOOVA,MOOVA (Monochoria); [8],9.0
same,Herbicidal rating MOOVA,MOOVA (Monochoria); [9],9.0
same,Herbicidal rating MOOVA,MOOVA (Monochoria); [10],9.0
same,Herbicidal rating MOOVA,MOOVA (Monochoria); [11],9.0
same,CASOB herbicidal rating,CASOB (Sicklepod); rate 0.0156 kg/ha,0.0
same,CASOB herbicidal rating,CASOB (Sicklepod); rate 0.0313 kg/ha,0.0
same,CASOB herbicidal rating,CASOB (Sicklepod); rate 0.0625 kg/ha,0.0
same,CASOB herbicidal rating,CASOB (Sicklepod); rate 0.1250 kg/ha,3.0
same,SAGPY herbicidal effect rating,[1]; 0.0313 kg/ha,2.0
same,SAGPY herbicidal effect rating,[1]; 0.0625 kg/ha,6.0
same,SAGPY herbicidal effect rating,[1]; 0.1250 kg/ha,7.0
same,SAGPY herbicidal effect rating,[1]; 0.2500 kg/ha,9.0
same,TRZAWR rating,[3]; 0.0156 kg/ha,0.0
same,TRZAWR rating,[3]; 0.0313 kg/ha,0.0
same,TRZAWR rating,[3]; 0.0625 kg/ha,0.0
same,TRZAWR rating,[3]; 0.1250 kg/ha,4.0
same,TRZAWR rating,[3]; 0.2500 kg/ha,6.0
same,TRZAWR rating,[3]; 0.5000 kg/ha,9.0
same,ORYSAT rating,"ORYSAT (Rice, Tebonnet) [4]; 0.0156 kg/ha",0.0
same,ORYSAT rating,"ORYSAT (Rice, Tebonnet) [4]; 0.0313 kg/ha",0.0
same,ORYSAT rating,"ORYSAT (Rice, Tebonnet) [4]; 0.0625 kg/ha",0.0
same,ORYSAT rating,"ORYSAT (Rice, Tebonnet) [4]; 0.1250 kg/ha",0.0
same,ORYSAT rating,"ORYSAT (Rice, Tebonnet) [4]; 0.2500 kg/ha",3.0
same,ORYSAT rating,"ORYSAT (Rice, Tebonnet) [4]; 0.5000 kg/ha",9.0
same,GLXMAW rating,[5]; 0.0156 kg/ha,0.0
same,GLXMAW rating,[5]; 0.0313 kg/ha,0.0
same,GLXMAW rating,[5]; 0.0625 kg/ha,0.0
same,GLXMAW rating,[5]; 0.1250 kg/ha,3.0
same,GLXMAW rating,[5]; 0.2500 kg/ha,5.0
same,GLXMAW rating,[5]; 0.5000 kg/ha,7.0
"C#CCOC(=O)CC1SC(=Nc2cc(-n3c(=O)cc(C(F)(F)F)n(C)c3=O)c(F)cc2Cl)N(C)C1=O (centres unmarked) [Compound 90, 2-Propynyl 2-{{2-chloro-5-[3,6-dihydro-3-methyl-2,6-dioxo-4-(trifluoromethyl)-1(2H)-pyrimidinyl]-4-fluorophenyl}imino}-3-methyl-4-oxo-5-thiazolidineacetate]",Herbicidal rating MOOVA,MOOVA (Monochoria); [8],9.0
same,Herbicidal rating MOOVA,MOOVA (Monochoria); [9],9.0
same,Herbicidal rating MOOVA,MOOVA (Monochoria); [10],9.0
same,Herbicidal rating MOOVA,MOOVA (Monochoria); [11],9.0
same,CASOB herbicidal rating,CASOB (Sicklepod); rate 0.0158 kg/ha,2.0
same,CASOB herbicidal rating,CASOB (Sicklepod); rate 0.0315 kg/ha,3.0
same,CASOB herbicidal rating,CASOB (Sicklepod); rate 0.0630 kg/ha,4.0
same,SAGPY herbicidal effect rating,[1]; 0.0313 kg/ha,4.0
same,SAGPY herbicidal effect rating,[1]; 0.0625 kg/ha,6.0
same,SAGPY herbicidal effect rating,[1]; 0.1250 kg/ha,9.0
same,SAGPY herbicidal effect rating,[1]; 0.2500 kg/ha,9.0
same,TRZAWR rating,[3]; 0.0313 kg/ha,0.0
same,TRZAWR rating,[3]; 0.0625 kg/ha,0.0
same,TRZAWR rating,[3]; 0.1250 kg/ha,2.0
same,TRZAWR rating,[3]; 0.2500 kg/ha,7.0
same,ORYSAT rating,"ORYSAT (Rice, Tebonnet) [4]; 0.0313 kg/ha",0.0
same,ORYSAT rating,"ORYSAT (Rice, Tebonnet) [4]; 0.0625 kg/ha",0.0
same,ORYSAT rating,"ORYSAT (Rice, Tebonnet) [4]; 0.1250 kg/ha",2.0
same,ORYSAT rating,"ORYSAT (Rice, Tebonnet) [4]; 0.2500 kg/ha",9.0
same,GLXMAW rating,[5]; 0.0313 kg/ha,0.0
same,GLXMAW rating,[5]; 0.0625 kg/ha,2.0
same,GLXMAW rating,[5]; 0.1250 kg/ha,7.0
same,GLXMAW rating,[5]; 0.2500 kg/ha,9.0
Cn1c(C(F)(F)F)cc(=O)n(-c2cc(N=C3SCC(=O)N3Cc3ccccc3)c(Cl)cc2F)c1=O [Compound 26],Herbicidal rating MOOVA,"MOOVA (Monochoria); rate 0.0313 kg/ha, 3-4 weeks after treatment",9.0
same,Herbicidal rating MOOVA,"MOOVA (Monochoria); rate 0.0625 kg/ha, 3-4 weeks after treatment",9.0
same,Herbicidal rating MOOVA,"MOOVA (Monochoria); rate 0.1250 kg/ha, 3-4 weeks after treatment",9.0
same,Herbicidal rating MOOVA,"MOOVA (Monochoria); rate 0.2500 kg/ha, 3-4 weeks after treatment",9.0
same,CASOB herbicidal rating,CASOB (Sicklepod); rate 0.0156 kg/ha,0.0
same,CASOB herbicidal rating,CASOB (Sicklepod); rate 0.0313 kg/ha,0.0
same,CASOB herbicidal rating,CASOB (Sicklepod); rate 0.0625 kg/ha,0.0
same,Herbicidal rating SAGPY,[1]; 0.0313 kg/ha,0.0
same,Herbicidal rating SAGPY,[1]; 0.0625 kg/ha,4.0
same,Herbicidal rating SAGPY,[1]; 0.1250 kg/ha,5.0
same,Herbicidal rating SAGPY,[1]; 0.2500 kg/ha,7.0
same,Preemergence herbicidal rating TRZAWR,[3]; rate 0.0156 kg/ha,0.0
same,Preemergence herbicidal rating TRZAWR,[3]; rate 0.0313 kg/ha,0.0
same,Preemergence herbicidal rating TRZAWR,[3]; rate 0.0625 kg/ha,0.0
same,Preemergence herbicidal rating TRZAWR,[3]; rate 0.1250 kg/ha,0.0
same,Preemergence herbicidal rating TRZAWR,[3]; rate 0.2500 kg/ha,1.0
same,Preemergence herbicidal rating ORYSAT,"ORYSAT (Rice, Tebonnet) [4]; rate 0.0156 kg/ha",0.0
same,Preemergence herbicidal rating ORYSAT,"ORYSAT (Rice, Tebonnet) [4]; rate 0.0313 kg/ha",0.0
same,Preemergence herbicidal rating ORYSAT,"ORYSAT (Rice, Tebonnet) [4]; rate 0.0625 kg/ha",0.0
same,Preemergence herbicidal rating ORYSAT,"ORYSAT (Rice, Tebonnet) [4]; rate 0.1250 kg/ha",0.0
same,Preemergence herbicidal rating ORYSAT,"ORYSAT (Rice, Tebonnet) [4]; rate 0.2500 kg/ha",0.0
same,Preemergence herbicidal rating GLXMAW,[5]; rate 0.0156 kg/ha,0.0
same,Preemergence herbicidal rating GLXMAW,[5]; rate 0.0313 kg/ha,0.0
same,Preemergence herbicidal rating GLXMAW,[5]; rate 0.0625 kg/ha,0.0
same,Preemergence herbicidal rating GLXMAW,[5]; rate 0.1250 kg/ha,0.0
same,Preemergence herbicidal rating GLXMAW,[5]; rate 0.2500 kg/ha,1.0
"CN1C(=O)C(CC(=O)Nc2ccccc2)SC1=Nc1cc(-n2c(=O)cc(C(F)(F)F)n(C)c2=O)c(F)cc1Cl (centres unmarked) [Compound 91, 2-{{2-Chloro-5-[3,6-dihydro-3-methyl-2,6-dioxo-4-(trifluoromethyl)-1(2H)-pyrimidinyl]-4-fluorophenyl}imino}-3-methyl-4-oxo-5-thiazolidineacetanilide]",Herbicidal rating MOOVA,MOOVA (Monochoria); [8],9.0
same,Herbicidal rating MOOVA,MOOVA (Monochoria); [9],9.0
same,Herbicidal rating MOOVA,MOOVA (Monochoria); [10],9.0
same,Herbicidal rating MOOVA,MOOVA (Monochoria); [11],9.0
same,CASOB herbicidal rating,CASOB (Sicklepod); rate 0.0158 kg/ha,0.0
same,CASOB herbicidal rating,CASOB (Sicklepod); rate 0.0315 kg/ha,0.0
same,CASOB herbicidal rating,CASOB (Sicklepod); rate 0.0630 kg/ha,4.0
same,SAGPY herbicidal effect rating,[1]; 0.0313 kg/ha,0.0
same,SAGPY herbicidal effect rating,[1]; 0.0625 kg/ha,0.0
same,SAGPY herbicidal effect rating,[1]; 0.1250 kg/ha,0.0
same,SAGPY herbicidal effect rating,[1]; 0.2500 kg/ha,0.0
same,TRZAWR rating,[3]; 0.1250 kg/ha,0.0
same,TRZAWR rating,[3]; 0.2500 kg/ha,0.0
same,ORYSAT rating,"ORYSAT (Rice, Tebonnet) [4]; 0.1250 kg/ha",0.0
same,ORYSAT rating,"ORYSAT (Rice, Tebonnet) [4]; 0.2500 kg/ha",0.0
same,GLXMAW rating,[5]; 0.1250 kg/ha,0.0
same,GLXMAW rating,[5]; 0.2500 kg/ha,0.0
